Inconclusive results and toxic doses are left out. The calls were made as follows: active = survival T/C of 150% or more; inactive = T/C below 125% in these data.
Test system: CD2F1 mice, L1210 leukemia ip, survival T/C
Experiment: NCI In Vivo Anticancer Drug Screen. Data for tumor model L1210 Leukemia (intraperitoneal) in CD2F1 (CDF1) mice
Conditions: endpoint: mean survival time, higher = longer survival
Outline: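 In this screen, transplantable tumors were grown in mice given either the compound or its vehicle. Results were expressed as the treated measurement relative to the control measurement.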

[1] = dose: 100.0 mg/kg/injection, schedule: Q04DX003 (ip), vehicle: saline
[2] = dose: 100.0 mg/kg/injection, schedule: Q04DX003 (ip), vehicle: saline sonified
[3] = dose: 200.0 mg/kg/injection, schedule: Q04DX003 (ip), vehicle: saline sonified
[4] = dose: 100.0 mg/kg/injection, schedule: Q04DX003 (ip), vehicle: saline with Tween-80
[5] = dose: 400.0 mg/kg/injection, schedule: Q04DX003 (ip), vehicle: saline with Tween-80

Measured: T/C

O=[N+]([O-])c1ccc(CSc2ncnc3c2ncn3C2OC(COP(=O)(O)O)C(O)C2O)cc1 (stereo not given)
inactive: dose: 12.5 mg/kg/injection, schedule: Q01DX005 (ip), vehicle: water 100 % of control | dose: 25.0 mg/kg/injection, schedule: Q01DX005 (ip), vehicle: water 96 % of control | dose: 50.0 mg/kg/injection, schedule: Q01DX005 (ip), vehicle: water 104 % of control | dose: 100.0 mg/kg/injection, schedule: Q01DX005 (ip), vehicle: water 105 % of control | dose: 200.0 mg/kg/injection, schedule: Q01DX005 (ip), vehicle: water 111 % of control

CN(C=O)NC(=O)Nc1ccccc1
inactive: dose: 75.0 mg/kg/injection, schedule: Q01DX001 (ip), vehicle: saline 100 % of control | dose: 150.0 mg/kg/injection, schedule: Q01DX001 (ip), vehicle: saline 100 % of control | dose: 300.0 mg/kg/injection, schedule: Q01DX001 (ip), vehicle: saline 102 % of control

O=C(O)c1nn2c(=O)[nH]c3ccccc3c2c1C(=O)O
inactive: dose: 12.5 mg/kg/injection, schedule: Q04DX002 (ip), vehicle: saline with Tween-80 90 % of control | dose: 25.0 mg/kg/injection, schedule: Q04DX002 (ip), vehicle: saline with Tween-80 94 % of control | dose: 50.0 mg/kg/injection, schedule: Q04DX002 (ip), vehicle: saline with Tween-80 87 % of control

Cn1cc[n+](C)c1C(c1ccccc1)N1CCCCC1 (stereo not given)
inactive: dose: 5.0 mg/kg/injection, schedule: Q01DX001 (ip), vehicle: saline with Tween-80 106 % of control | dose: 5.0 mg/kg/injection, schedule: Q01DX009 (ip), vehicle: saline with Tween-80 94 % of control | dose: 10.0 mg/kg/injection, schedule: Q01DX001 (ip), vehicle: saline with Tween-80 96 % of control | dose: 10.0 mg/kg/injection, schedule: Q01DX009 (ip), vehicle: saline with Tween-80 100 % of control | dose: 20.0 mg/kg/injection, schedule: Q01DX001 (ip), vehicle: saline with Tween-80 102 % of control | dose: 20.0 mg/kg/injection, schedule: Q01DX009 (ip), vehicle: saline with Tween-80 98 % of control

COc1cc2c(cc1OC)C1=NN(c3ccccc3)C(=O)C1CC2 (stereo not given)
inactive: dose: 100.0 mg/kg/injection, schedule: Q04DX002 (ip), vehicle: saline with Tween-80 103 % of control | dose: 200.0 mg/kg/injection, schedule: Q04DX002 (ip), vehicle: saline with Tween-80 95 % of control | dose: 400.0 mg/kg/injection, schedule: Q04DX002 (ip), vehicle: saline with Tween-80 95 % of control

Cc1ccc2nc3c(nc2c1)-c1cccc2cccc-3c12
inactive: dose: 100.0 mg/kg/injection, schedule: Q01DX009 (ip), vehicle: saline with Tween-80 92 % of control | dose: 200.0 mg/kg/injection, schedule: Q01DX009 (ip), vehicle: saline with Tween-80 94 % of control | dose: 400.0 mg/kg/injection, schedule: Q01DX009 (ip), vehicle: saline with Tween-80 106 % of control

CCCCCCCCCCP(=O)(OCCCC)OCCCC
inactive: dose: 25.0 mg/kg/injection, schedule: Q04DX003 (ip), vehicle: saline 102 % of control | dose: 50.0 mg/kg/injection, schedule: Q04DX003 (ip), vehicle: saline 102 % of control | [1] 100 % of control

CCCCCCC[CH2][Sn][CH2]CCCCCCC.Nc1ncnc2c1ncn2C1OC(CO)C2[OH+][OH+]C21 (stereo not given)
inactive: dose: 12.5 mg/kg/injection, schedule: Q01DX005 (ip), vehicle: other 98 % of control | dose: 25.0 mg/kg/injection, schedule: Q01DX005 (ip), vehicle: other 110 % of control

CCC1(CC)COC(C)(C(=O)O)OC1
inactive: [1] 111 % of control | dose: 200.0 mg/kg/injection, schedule: Q04DX003 (ip), vehicle: saline 96 % of control | dose: 400.0 mg/kg/injection, schedule: Q04DX003 (ip), vehicle: saline 100 % of control

COC(=O)CC(NC(=O)C(CSC(c1ccccc1)(c1ccccc1)c1ccccc1)NC(c1ccccc1)(c1ccccc1)c1ccccc1)C(=O)OC (stereo not given)
inactive: dose: 50.0 mg/kg/injection, schedule: Q01DX009 (ip), vehicle: saline 95 % of control | dose: 100.0 mg/kg/injection, schedule: Q01DX009 (ip), vehicle: saline 92 % of control | dose: 200.0 mg/kg/injection, schedule: Q01DX009 (ip), vehicle: saline 89 % of control | dose: 400.0 mg/kg/injection, schedule: Q01DX009 (ip), vehicle: saline 91 % of control

O=[N+]([O-])c1ccc(/C=N\Nc2ccc([N+](=O)[O-])cn2)cc1
inactive: dose: 50.0 mg/kg/injection, schedule: Q04DX003 (ip), vehicle: saline sonified 96 % of control | [2] 89 % of control | [3] 96 % of control

CC(C)(C)OC(=O)C(CC(=O)O)=C(c1ccccc1)c1ccccc1
inactive: dose: 100.0 mg/kg/injection, schedule: Q01DX009 (ip), vehicle: Klucel (hydroxypropylcellulose) (HPC) 102 % of control | dose: 100.0 mg/kg/injection, schedule: Q04DX003 (ip), vehicle: Klucel (hydroxypropylcellulose) (HPC) 101 % of control | dose: 200.0 mg/kg/injection, schedule: Q01DX009 (ip), vehicle: Klucel (hydroxypropylcellulose) (HPC) 100 % of control | dose: 200.0 mg/kg/injection, schedule: Q04DX003 (ip), vehicle: Klucel (hydroxypropylcellulose) (HPC) 103 % of control | dose: 400.0 mg/kg/injection, schedule: Q01DX009 (ip), vehicle: Klucel (hydroxypropylcellulose) (HPC) 104 % of control | dose: 400.0 mg/kg/injection, schedule: Q04DX003 (ip), vehicle: Klucel (hydroxypropylcellulose) (HPC) 109 % of control

COc1ccc(/C=C(/c2ccccc2)[Si](C)(C)C)cc1
inactive: dose: 100.0 mg/kg/injection, schedule: Q04DX003 (ip), vehicle: other 91 % of control | dose: 200.0 mg/kg/injection, schedule: Q04DX003 (ip), vehicle: other 96 % of control | dose: 400.0 mg/kg/injection, schedule: Q04DX003 (ip), vehicle: other 94 % of control

O=C1/C(=C\c2ccccc2)Oc2cc(O)c(O)cc21
inactive: dose: 25.0 mg/kg/injection, schedule: Q01DX001 (ip), vehicle: saline with Tween-80 100 % of control | dose: 50.0 mg/kg/injection, schedule: Q01DX001 (ip), vehicle: saline with Tween-80 104 % of control | dose: 100.0 mg/kg/injection, schedule: Q01DX001 (ip), vehicle: saline with Tween-80 100 % of control

CCCCCCC[CH2][Sn]([CH2]C)([CH2]C)[O]C(C)=O
inactive: dose: 0.25 mg/kg/injection, schedule: Q04DX003 (ip), vehicle: saline 106 % of control | dose: 0.5 mg/kg/injection, schedule: Q04DX003 (ip), vehicle: saline 101 % of control | dose: 0.63 mg/kg/injection, schedule: Q04DX003 (ip), vehicle: saline 93 % of control | dose: 1.0 mg/kg/injection, schedule: Q04DX003 (ip), vehicle: saline 103 % of control | dose: 1.25 mg/kg/injection, schedule: Q04DX003 (ip), vehicle: saline 102 % of control

CSc1ccc(N=C/C=C/c2ccccc2)cc1
inactive: [4] 93 % of control | [5] 91 % of control

CC[C@H]1CN2CCc3cc(OC)c(OC)cc3[C@@H]2C[C@@H]1C[C@H]1NCCc2cc(O)c(OC)cc21
inactive: dose: 0.5 mg/kg/injection, schedule: Q01DX015 (ip), vehicle: saline 107 % of control | dose: 1.0 mg/kg/injection, schedule: Q01DX015 (ip), vehicle: saline 110 % of control | dose: 2.0 mg/kg/injection, schedule: Q01DX015 (ip), vehicle: saline 122 % of control | dose: 8.0 mg/kg/injection, schedule: Q01DX015 (ip), vehicle: saline 115 % of control | dose: 16.0 mg/kg/injection, schedule: Q01DX015 (ip), vehicle: saline 89 % of control

Cc1cccc([N+](=O)[O-])c1-c1ccccc1C(=O)O
inactive: dose: 100.0 mg/kg/injection, schedule: Q01DX001 (ip), vehicle: Klucel (hydroxypropylcellulose) (HPC) 101 % of control | dose: 200.0 mg/kg/injection, schedule: Q01DX001 (ip), vehicle: Klucel (hydroxypropylcellulose) (HPC) 101 % of control | dose: 400.0 mg/kg/injection, schedule: Q01DX001 (ip), vehicle: Klucel (hydroxypropylcellulose) (HPC) 101 % of control

c1ccc(N=C(c2ccccc2)c2ccccc2)cc1
inactive: [4] 103 % of control | dose: 200.0 mg/kg/injection, schedule: Q04DX003 (ip), vehicle: saline with Tween-80 93 % of control | [5] 93 % of control

BrC1(Br)C2CC/C=C/CCCCC21 (stereo not given)
inactive: [2] 97 % of control | [3] 94 % of control | dose: 400.0 mg/kg/injection, schedule: Q04DX003 (ip), vehicle: saline sonified 97 % of control

CCN(CC)CCCC(C)Nc1ccnc2cc(Cl)ccc12 (stereo not given)
inactive: dose: 100.0 mg/kg/injection, schedule: Q04DX002 (ip), vehicle: saline 91 % of control

Oc1ccc(SSc2ccc(O)cc2)cc1
inactive: dose: 100.0 mg/kg/injection, schedule: Q01DX009 (ip), vehicle: other 98 % of control | dose: 200.0 mg/kg/injection, schedule: Q01DX009 (ip), vehicle: other 101 % of control | dose: 400.0 mg/kg/injection, schedule: Q01DX009 (ip), vehicle: other 104 % of control

From PubChem BioAssay AID256 (DTP/NCI, 2004)
